These results are taken from ChEMBL document CHEMBL1201862, “PubChem BioAssay data set” (2004).

Assay [1] in a line: A Cell Based Secondary Assay To Explore Cytotoxicity of Compounds that Sensitize Mycobacterium Tuberculosis to Beta-Lactam Antibiotics. Format: functional.
The test system of a further assay is Streptococcus. The assay is described as follows: GAS UMAA2166 growth inhibition – luminescence, BacTiterGlo, counter-screen for streptokinase expression inhibitor project, dose response (AID 1915).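 Further: potency for reduction of bacterial viability or growth.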 Format: functional, organism-based.
The target of a further assay is T1, Streptokinase A (Streptococcus pyogenes serotype M1, UniProt P10520).
T1 sequence (P10520 whole entry): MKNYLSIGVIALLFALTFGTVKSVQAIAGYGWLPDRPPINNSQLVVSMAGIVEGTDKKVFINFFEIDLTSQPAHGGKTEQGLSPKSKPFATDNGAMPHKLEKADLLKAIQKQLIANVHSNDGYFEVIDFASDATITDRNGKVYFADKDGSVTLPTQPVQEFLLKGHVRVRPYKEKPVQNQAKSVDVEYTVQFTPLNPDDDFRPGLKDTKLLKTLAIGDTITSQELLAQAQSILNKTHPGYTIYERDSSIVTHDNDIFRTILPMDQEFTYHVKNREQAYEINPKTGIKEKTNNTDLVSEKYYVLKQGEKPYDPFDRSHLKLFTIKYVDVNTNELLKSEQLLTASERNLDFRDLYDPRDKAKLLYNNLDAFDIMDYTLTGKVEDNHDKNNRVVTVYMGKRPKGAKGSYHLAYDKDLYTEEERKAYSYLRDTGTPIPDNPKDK
The assay is described as follows: viability-normalized secreted streptokinase activity reduction – plasminogen activation absorbance, OD405, dose response (AID 1914).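 Further: secreted streptokinase activity via plasminogen activation per viability signal from cell pellet.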 It is filed as functional, Streptococcus pyogenes M1 GAS.

Assay [2] is described as follows: HPDE-C7 pancreatic duct cell viability loss – fluorescence, HTS (AID 430). It is filed as functional, cell-based. As to conditions: Homo sapiens.
A short description of assay [3]: viability loss of HPDE-C7K cells – cell-based, fluorescence, HTS, primary screen (AID 431). Format: functional. As to conditions: Homo sapiens.
Assay [4] has as its system Streptococcus sp. 'group A'. Description: Streptococcus pyogenes SK(-)GAS viability under kanamycin – luminescence, BacTiterGlo, confirmation, counter-screen for streptokinase expression inhibitor project, dose response (AID 1900). It is filed as functional, organism-based. On the technique in general: A counterscreen serves to expose hits that act by an unwanted route or on another target.

For assay [5], the target named is Heat shock protein HSP 90-alpha (Homo sapiens, UniProt P07900). Format: functional, organism-based.
In another assay the target is T2, Insulin-degrading enzyme (Homo sapiens, UniProt P14735).
T2 sequence (P14735 whole entry): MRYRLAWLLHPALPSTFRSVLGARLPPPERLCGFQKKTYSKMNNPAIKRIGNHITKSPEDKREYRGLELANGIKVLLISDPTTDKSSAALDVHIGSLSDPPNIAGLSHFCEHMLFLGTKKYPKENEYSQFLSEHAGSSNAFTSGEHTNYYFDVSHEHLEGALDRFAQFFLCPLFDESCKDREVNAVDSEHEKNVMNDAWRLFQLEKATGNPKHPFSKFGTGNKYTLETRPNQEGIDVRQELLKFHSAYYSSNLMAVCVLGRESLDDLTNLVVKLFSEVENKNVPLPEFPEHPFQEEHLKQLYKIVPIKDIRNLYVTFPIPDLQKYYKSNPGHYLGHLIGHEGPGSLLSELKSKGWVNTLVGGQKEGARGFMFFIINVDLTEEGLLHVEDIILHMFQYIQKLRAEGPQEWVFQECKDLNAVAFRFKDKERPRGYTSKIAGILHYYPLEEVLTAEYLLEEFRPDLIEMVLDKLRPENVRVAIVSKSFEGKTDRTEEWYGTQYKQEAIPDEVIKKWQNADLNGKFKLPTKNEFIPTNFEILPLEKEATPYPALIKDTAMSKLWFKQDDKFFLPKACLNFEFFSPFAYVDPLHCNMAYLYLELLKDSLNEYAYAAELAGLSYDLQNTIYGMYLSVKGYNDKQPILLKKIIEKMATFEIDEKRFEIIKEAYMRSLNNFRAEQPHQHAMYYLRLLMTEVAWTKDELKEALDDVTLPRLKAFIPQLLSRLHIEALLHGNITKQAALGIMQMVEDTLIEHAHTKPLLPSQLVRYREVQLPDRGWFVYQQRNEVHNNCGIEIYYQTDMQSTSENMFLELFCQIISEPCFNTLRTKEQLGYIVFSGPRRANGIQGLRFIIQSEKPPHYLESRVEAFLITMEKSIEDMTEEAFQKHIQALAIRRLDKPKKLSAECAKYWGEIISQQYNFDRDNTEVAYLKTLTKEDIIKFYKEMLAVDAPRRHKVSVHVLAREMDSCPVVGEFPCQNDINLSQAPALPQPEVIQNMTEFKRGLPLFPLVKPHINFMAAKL
The assay is described as follows: Dose Response: Fluorescence polarization-based cell-based high throughput dose response assay for inhibitors of insulin-degrading enzyme (IDE). [Related pubchem assays: 434962 (Primary screen (IDE inhibitors in singlicate)), 449730 (Counterscreen (Cytotoxicity in triplicate)), 435028 (Confirmation (IDE inhibitors in triplicate)), 434984 (Summary …. Format: functional. On the technique in general: Polarisation of emitted light reports the rotation of a fluorescent probe.

A short description of assay [6]: cells. It is filed as functional, cell-based.
Assay [7] is described as follows: cells. Format: functional, cell-based. This is another data set of the same source.
The nature of assay [8]: Counterscreen for IDE inhibitors: Luminescence-based cell-based high throughput dose response assay to identify compounds that are cytotoxic to HEK cells. [Related pubchem assays: 434962 (Primary screen (IDE inhibitors in singlicate)), 449730 (Counterscreen (Cytotoxicity in triplicate)), 435028 (Confirmation (IDE inhibitors in triplicate)) …. Format: functional. As to conditions: HEK293.

Assay [9] has as its target T3, Lysosomal acid glucosylceramidase (Homo sapiens, UniProt P04062).
T3 sequence (P04062 whole entry): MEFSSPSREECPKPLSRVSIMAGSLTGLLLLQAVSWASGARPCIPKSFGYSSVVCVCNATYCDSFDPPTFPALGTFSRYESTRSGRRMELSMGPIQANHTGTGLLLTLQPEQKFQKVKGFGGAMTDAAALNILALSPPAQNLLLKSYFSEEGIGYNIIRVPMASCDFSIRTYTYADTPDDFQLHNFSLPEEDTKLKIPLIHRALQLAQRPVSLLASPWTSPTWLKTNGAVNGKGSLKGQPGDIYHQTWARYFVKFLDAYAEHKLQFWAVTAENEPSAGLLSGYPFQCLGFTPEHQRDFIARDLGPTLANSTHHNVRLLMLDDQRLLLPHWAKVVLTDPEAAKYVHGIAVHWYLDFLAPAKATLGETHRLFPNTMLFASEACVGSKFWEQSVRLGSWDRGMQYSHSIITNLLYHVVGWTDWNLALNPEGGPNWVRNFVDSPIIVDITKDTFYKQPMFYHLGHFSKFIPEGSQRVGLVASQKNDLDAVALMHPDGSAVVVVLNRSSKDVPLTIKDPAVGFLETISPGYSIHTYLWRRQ
Description: Dose response cell-based high throughput screening assay to identify enhancers of beta-glucosidase activity. [Related pubchem assays: 784 ]. It is filed as functional.

The target in assay [10] is Peroxisome proliferator-activated receptor gamma/Nuclear receptor coactivator 2 (Homo sapiens, UniProt P37231). It is filed as functional.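 Further: agonist potency for raising coactivator recruitment to the receptor.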
The target in assay [11] is Peroxisome proliferator-activated receptor gamma/Nuclear receptor coactivator 1 (Homo sapiens, UniProt P37231). Format: functional.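 Further: agonist potency as compounds enhance coactivator SRC-1 recruitment to PPARgamma.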
The target of assay [12] is Peroxisome proliferator-activated receptor gamma/Nuclear receptor coactivator 3 (Homo sapiens, UniProt P37231). Format: functional.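 Further: agonist potency for raising coactivator recruitment to the receptor.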
A further assay concerns the target Cytochrome P450 2C19 (Homo sapiens, UniProt P33261). Description: Cytochrome panel assay with activity outcomes. Panel member name: p450-cyp2c19 Compounds with AC50 equal or less than 10 uM are considered active. As to conditions: read-out: AC50. Format: functional.
For another assay, the target named is Cytochrome P450 2C9 (Homo sapiens, UniProt P11712).
Assay [13] in a line: NIH3T3 cell viability loss – ATP luminescence, mouse fibroblasts, counter-screen, dose response (AID 2010).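 Further: cells exposed to compound for about 90 hours before reading.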 It is filed as functional, cell-based.
A short description of assay [14]: Trypanosoma cruzi growth suppression in host cells – NIH3T3 host cells, beta-gal luminescence, confirmation (AID 2044).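 Further: intracellular parasites grown in NIH/3T3 mouse fibroblasts as host cells; luminescent beta-galactosidase reporter signal from transgenic T. cruzi replicating inside host cells; inhibitors lower the luminescence signal.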 It is filed as functional, cell-based.
For another assay, the target named is Melanocortin receptor 4 (Homo sapiens, UniProt P32245). Format: functional, cell-based.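 Further: Cell-based assay with luminescence read-out, confirmatory dose-response testing for agonist activity of biased ligands at MC4R; human U2OS cells with tagged receptor and beta-arrestin; potency of agonists that increase receptor coupling to beta-arrestin.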
A short description of assay [15]: M. tuberculosis H37Rv growth inhibitors, H37Rv strain (AID 1626). Format: functional.
Assay [16] has as its target Protein-tyrosine kinase 2-beta (Homo sapiens, UniProt Q14289).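 Further: potency of inhibitors of PYK2 kinase phosphorylation of poly-GT substrate.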
Assay [17] can be described thus: Luminescence Cell-Based Dose Response HTS to Identify Inhibitors of 5'UTR Stem-Loop Driven Prion Protein mRNA Translation in H4 Neuroglioblastoma Cells. [Related pubchem assays: 1827 (Project Summary), 1813 (Primary HTS)]. It is filed as functional.
The nature of assay [18]: alpha-synuclein stem-loop luciferase translation blockers – H4 neuroglioma cells, luminescence, confirmation (AID 1988). Format: functional, cell-based.
Another assay deals with Estrogen receptor beta (Homo sapiens, UniProt Q92731).
A short description of assay [19]: luciferase reporter signal suppression in cells – H4 neuroglioma cells, luminescence, dose response (AID 1990). Format: functional, cell-based. On the technique in general: Reporter assays use an easily measured gene product as a stand-in for the process of interest.

Activity calls are given as the source filed them. Bounds are passed on as bounds.

As a reminder, the CC50 is the concentration giving 50% cytotoxicity. The EC50 is the midpoint of the concentration-response curve. In general, AC50 refers to the midpoint of the concentration-response curve, whichever way the signal moves. One may read the IC50 as the midpoint of a concentration-inhibition curve.

Protein-tyrosine kinase 2-beta, sequence (Q14289 whole entry): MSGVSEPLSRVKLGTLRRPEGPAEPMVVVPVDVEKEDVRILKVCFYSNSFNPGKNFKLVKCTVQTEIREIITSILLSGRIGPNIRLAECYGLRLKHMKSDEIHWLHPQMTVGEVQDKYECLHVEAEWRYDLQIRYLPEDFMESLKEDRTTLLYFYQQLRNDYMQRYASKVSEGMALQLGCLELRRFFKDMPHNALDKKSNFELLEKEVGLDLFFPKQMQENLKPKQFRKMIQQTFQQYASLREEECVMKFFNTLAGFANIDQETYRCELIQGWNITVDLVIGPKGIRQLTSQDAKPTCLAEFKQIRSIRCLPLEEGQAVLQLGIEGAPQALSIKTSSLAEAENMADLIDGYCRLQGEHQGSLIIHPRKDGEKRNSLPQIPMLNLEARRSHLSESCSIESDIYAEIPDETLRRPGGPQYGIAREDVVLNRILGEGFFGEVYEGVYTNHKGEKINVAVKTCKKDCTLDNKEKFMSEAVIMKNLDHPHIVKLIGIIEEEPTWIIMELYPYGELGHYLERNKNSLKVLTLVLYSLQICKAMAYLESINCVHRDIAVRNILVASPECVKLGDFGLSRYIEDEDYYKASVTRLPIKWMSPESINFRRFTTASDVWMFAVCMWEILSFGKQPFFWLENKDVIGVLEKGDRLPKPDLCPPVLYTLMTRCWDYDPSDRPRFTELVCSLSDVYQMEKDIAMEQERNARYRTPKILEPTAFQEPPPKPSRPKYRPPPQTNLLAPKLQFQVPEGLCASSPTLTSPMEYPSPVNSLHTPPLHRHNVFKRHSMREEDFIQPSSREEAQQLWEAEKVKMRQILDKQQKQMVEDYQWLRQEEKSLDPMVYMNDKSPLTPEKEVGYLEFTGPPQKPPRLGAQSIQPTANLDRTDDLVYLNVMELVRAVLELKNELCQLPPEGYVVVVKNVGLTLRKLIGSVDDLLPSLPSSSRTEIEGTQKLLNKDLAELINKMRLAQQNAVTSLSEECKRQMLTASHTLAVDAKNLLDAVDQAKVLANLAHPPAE
Peroxisome proliferator-activated receptor gamma/Nuclear receptor coactivator 1, sequence (P37231 whole entry): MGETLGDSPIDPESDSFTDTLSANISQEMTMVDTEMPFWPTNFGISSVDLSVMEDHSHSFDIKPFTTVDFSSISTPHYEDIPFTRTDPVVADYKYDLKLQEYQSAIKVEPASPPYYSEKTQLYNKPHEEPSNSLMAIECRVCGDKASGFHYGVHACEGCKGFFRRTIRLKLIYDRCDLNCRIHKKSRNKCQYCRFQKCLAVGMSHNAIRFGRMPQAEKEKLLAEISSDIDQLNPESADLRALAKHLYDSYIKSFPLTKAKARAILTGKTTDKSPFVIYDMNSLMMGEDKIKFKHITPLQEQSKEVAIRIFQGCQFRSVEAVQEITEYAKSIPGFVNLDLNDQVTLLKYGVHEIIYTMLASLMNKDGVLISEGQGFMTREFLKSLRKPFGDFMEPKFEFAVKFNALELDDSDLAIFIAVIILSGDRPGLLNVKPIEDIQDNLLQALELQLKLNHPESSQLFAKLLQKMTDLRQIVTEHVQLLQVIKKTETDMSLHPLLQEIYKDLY
Peroxisome proliferator-activated receptor gamma/Nuclear receptor coactivator 1, sequence (Q15788 whole entry, further chain): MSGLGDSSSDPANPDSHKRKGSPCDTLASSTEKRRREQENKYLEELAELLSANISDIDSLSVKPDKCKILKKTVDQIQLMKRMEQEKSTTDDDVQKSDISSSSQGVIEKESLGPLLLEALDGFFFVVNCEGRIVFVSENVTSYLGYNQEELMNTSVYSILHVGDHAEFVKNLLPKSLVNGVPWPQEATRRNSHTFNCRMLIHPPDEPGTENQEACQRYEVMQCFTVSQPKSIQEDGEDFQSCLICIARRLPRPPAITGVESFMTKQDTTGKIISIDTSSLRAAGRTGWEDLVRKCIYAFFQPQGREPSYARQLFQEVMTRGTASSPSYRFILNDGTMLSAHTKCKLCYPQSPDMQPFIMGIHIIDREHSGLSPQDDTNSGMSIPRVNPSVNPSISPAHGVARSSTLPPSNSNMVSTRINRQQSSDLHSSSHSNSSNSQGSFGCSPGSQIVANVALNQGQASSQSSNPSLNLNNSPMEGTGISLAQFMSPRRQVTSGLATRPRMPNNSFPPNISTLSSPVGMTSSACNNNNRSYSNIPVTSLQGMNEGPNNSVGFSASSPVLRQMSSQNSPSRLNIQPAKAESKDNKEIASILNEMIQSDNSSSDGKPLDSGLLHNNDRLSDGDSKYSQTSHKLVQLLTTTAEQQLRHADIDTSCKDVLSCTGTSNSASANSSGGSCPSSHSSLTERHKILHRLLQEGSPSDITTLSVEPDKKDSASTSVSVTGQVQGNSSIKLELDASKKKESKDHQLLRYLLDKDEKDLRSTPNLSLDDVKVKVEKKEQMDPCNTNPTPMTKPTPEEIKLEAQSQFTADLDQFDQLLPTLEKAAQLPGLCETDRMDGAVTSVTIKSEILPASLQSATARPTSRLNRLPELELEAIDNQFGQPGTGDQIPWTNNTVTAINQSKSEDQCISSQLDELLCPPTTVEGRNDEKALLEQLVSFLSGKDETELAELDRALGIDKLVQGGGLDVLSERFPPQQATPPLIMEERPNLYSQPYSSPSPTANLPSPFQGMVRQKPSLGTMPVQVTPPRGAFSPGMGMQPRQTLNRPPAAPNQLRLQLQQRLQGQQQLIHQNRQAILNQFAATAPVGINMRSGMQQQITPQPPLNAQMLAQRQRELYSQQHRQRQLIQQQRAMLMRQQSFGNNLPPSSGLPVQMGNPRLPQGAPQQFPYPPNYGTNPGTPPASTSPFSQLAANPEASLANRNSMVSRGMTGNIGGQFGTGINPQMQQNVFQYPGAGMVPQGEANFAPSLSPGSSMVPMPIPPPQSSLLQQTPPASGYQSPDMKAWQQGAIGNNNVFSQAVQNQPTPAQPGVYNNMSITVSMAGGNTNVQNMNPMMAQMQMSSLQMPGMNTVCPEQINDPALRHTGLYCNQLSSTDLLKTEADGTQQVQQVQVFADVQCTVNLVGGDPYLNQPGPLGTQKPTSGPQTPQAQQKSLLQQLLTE
Peroxisome proliferator-activated receptor gamma/Nuclear receptor coactivator 3, sequence (P37231 whole entry): as the sequence (P37231 whole entry) above
Peroxisome proliferator-activated receptor gamma/Nuclear receptor coactivator 3, sequence (Q9Y6Q9 whole entry, further chain): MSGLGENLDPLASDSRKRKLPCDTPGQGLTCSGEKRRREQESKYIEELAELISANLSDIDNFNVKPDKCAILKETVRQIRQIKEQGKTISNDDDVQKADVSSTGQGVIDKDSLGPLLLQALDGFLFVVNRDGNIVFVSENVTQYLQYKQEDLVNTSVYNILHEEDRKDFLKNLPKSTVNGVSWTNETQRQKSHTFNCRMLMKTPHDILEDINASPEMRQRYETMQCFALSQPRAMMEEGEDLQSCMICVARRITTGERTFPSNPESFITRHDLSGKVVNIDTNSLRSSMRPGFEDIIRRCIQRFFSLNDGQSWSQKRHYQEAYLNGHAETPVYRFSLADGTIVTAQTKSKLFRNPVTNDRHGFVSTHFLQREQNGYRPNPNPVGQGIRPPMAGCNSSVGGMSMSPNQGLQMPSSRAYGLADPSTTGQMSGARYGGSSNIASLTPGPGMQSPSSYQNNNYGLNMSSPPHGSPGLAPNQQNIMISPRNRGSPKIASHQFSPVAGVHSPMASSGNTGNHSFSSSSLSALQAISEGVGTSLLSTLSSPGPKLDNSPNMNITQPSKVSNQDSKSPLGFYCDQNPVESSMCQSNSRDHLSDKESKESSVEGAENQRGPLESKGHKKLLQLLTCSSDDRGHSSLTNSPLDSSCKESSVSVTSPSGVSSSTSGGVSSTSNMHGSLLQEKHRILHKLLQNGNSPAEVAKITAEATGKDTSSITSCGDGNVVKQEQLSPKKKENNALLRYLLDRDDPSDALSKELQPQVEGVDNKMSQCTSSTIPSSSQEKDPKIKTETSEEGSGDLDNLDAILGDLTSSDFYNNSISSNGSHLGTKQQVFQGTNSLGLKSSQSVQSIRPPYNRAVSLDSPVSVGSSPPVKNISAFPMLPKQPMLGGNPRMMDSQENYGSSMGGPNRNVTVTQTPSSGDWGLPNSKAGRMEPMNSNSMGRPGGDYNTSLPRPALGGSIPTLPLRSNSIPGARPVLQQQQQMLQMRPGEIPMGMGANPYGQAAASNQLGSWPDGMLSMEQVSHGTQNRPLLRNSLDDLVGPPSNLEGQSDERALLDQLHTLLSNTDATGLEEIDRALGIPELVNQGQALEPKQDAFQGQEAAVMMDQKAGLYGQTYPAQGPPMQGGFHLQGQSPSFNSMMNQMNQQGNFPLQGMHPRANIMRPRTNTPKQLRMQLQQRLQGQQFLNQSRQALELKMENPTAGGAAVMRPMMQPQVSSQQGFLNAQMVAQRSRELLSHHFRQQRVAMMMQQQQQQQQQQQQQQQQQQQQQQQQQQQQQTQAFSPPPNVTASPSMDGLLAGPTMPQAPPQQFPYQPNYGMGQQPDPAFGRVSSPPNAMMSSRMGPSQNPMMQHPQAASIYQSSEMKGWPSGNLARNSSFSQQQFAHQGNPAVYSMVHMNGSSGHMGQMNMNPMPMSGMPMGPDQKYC

Regarding `Cc1cccnc1NC(=O)c1c(O)c2cccc3c2n(c1=O)CCC3`, the CC50 in assay [1] is > 40 µM (active).

Regarding `CC(C)(C)C1CCC2(CC1)C(C#N)=C(SCC(=O)Nc1ccccc1)NC(=O)C2C#N` (centres undefined), the EC50 was 25.2 µM (active) with Streptococcus; 11.5 µM (active) at Streptokinase A; 5.05 µM (active) in [2]; 4.26 µM (active) in assay [3]; 4.96 µM (active) in assay [4].

Regarding `CCCOC(=O)c1ccc(Oc2c[nH]nc2-c2ccc(OC)cc2O)cc1`, the EC50 is 10.3 µM (active) with Streptococcus, 8.49 µM (active) in assay [2], 6.14 µM (active) in assay [3] and 8.73 µM (active) in assay [4]. Besides, the AC50 in assay [5] was 7.97 µM (active).

As for `O=C(/C=C/c1ccc([N+](=O)[O-])cc1)c1cccs1`, the CC50 in [1] is 20.9 µM (active).

Take `CCCCCCN1C=CC=C/C1=C/C=C(C#N)C#N`: the results for the IC50 (on Insulin-degrading enzyme; in [8]) were > 6.22 µM (active) and 45.9 µM (not active), respectively. For the same compound, the EC50 in “cells [6]” and in the assay “cells [7]” was > 350 µM (not active) each time.

For the compound `Cc1nonc1NC(=O)CSc1nc2cc(Cl)ccc2c2c1CCCC2`, in [9], the EC50 is > 10 µM (not active).

For `CCN1C(=O)/C(=C/C=C2/CCCN2C)OC1=S`, the values for the IC50 (at Insulin-degrading enzyme; in [8]) were 30.7 µM (not active) and > 55.7 µM (not active), respectively.

In the case of `Cc1cc(C)cc(Nc2cnn(C34CC5CC(CC(CC(=O)O)(C5)C3)C4)c(=O)c2Cl)c1`, the figures for the IC50 (at Insulin-degrading enzyme; in assay [8]) were 21.5 µM (not active) and 0.0039 µM (active), respectively.

On to `COc1ccc(NC(=O)CN2CCN(S(=O)(=O)c3ccc(C(C)C)cc3)CC2)cc1OC`, for which the EC50 in assay [9] was > 10 µM (not active).

With `NNc1nc2c(-c3ccc(F)cc3)nnn2c2ccccc12`, the EC50 in assay [10], in assay [11] and in assay [12] was > 79.4 µM (not active) in each case.

With `Cn1c(/C(C#N)=C(\O)c2ccc(S(=O)(=O)N3CCCCC3)cc2)nc2ccccc21`, the figures for the concentration at half-maximal activity (AC50) on Cytochrome P450 2C19 and on Cytochrome P450 2C9 were 10 µM (inconclusive) and 0.316 µM (inconclusive), respectively. Besides, in [9], the EC50 is reported as > 50 µM (not active).

Take `c1ccc(N2CCN(c3nc(NCc4ccco4)c4ccccc4n3)CC2)cc1`: the EC50 in assay [2] is 11 µM (active); in assay [3], 10.8 µM (active); in [13], > 60 µM (not active); in assay [14], 2.3 µM (active).

Turning to `O=C(Nc1ccccc1-c1ccccc1)C12CC3CC(CC(C3)C1)C2`, the CC50 in assay [1] is > 40 µM (active).

As to `O=C(COc1ccc2c(c1)OCO2)Nc1ccc2c(c1)oc1ccccc12`, the EC50 on Melanocortin receptor 4 is > 89.2 µM (inactive). Further, in assay [15], the concentration for half-maximal inhibition (IC50) is > 100 µM (active).

Take `CCc1c(C#N)c(N)nc(SCC(=O)OCc2ccccc2)c1C#N`: in assay [15], the IC50 is > 100 µM (active).

For `CCCCSc1nnc([C@H](C)NC(=O)OC(C)(C)C)o1`, the EC50 in assay [10], in assay [11] and in assay [12] was > 79.4 µM (not active) throughout.

In the case of `CCn1c(SCC(=O)O)nnc1C1CCCCC1`, the EC50 in assay [10], in assay [11] and in assay [12] was > 79.4 µM (not active) throughout.

For `O=C(c1cc(COc2ccc(F)cc2Cl)on1)N1CCC(OCc2cccnc2)CC1`, the IC50 in assay [15] is > 100 µM (active).

`COc1ccc(-c2cc3ccccc3oc2=O)cc1NC(=O)c1ccc(Br)o1`: the IC50 in assay [16] was 1.57 µM (active).

As to `CCc1ccc2nc(SCC(=O)N(CC)CC)c(C#N)cc2c1`, the IC50 in [16] is reported as > 69.5 µM (not active).

As for `Cc1nn(C)c(C)c1CN(C)C(=O)c1cnn2c1NC(c1ccccc1)CC2C(F)(F)F` (centres undefined), the results for the EC50 in [17], in assay [18] and in [19] were 17.9 µM (active), 20 µM (active) and > 120 µM (not active), respectively. Besides, the IC50 against Estrogen receptor beta is > 50 µM (not active).
